Measured values as given in patent US9040501B2, “Compositions and methods for treating cancer” (Eisai Inc., priority 2009, dated 2015).
Where two headings read alike, the source gives them in different places.

Tests used:
[1] = system: A2780 human ovarian cancer xenograft; assay: In vivo efficacy study in A2780 human ovarian cancer xenograft model; parameters: species or system female nude mice; settings: qdx5 for two weeks
Method: Animals were dosed daily from Monday to Friday for two weeks.
Female nude mice (NU/NU, strain code 088, 6 weeks old, Charles River Laboratory) were implanted subcutaneously with 5×10^6 A2780 cancer cells per mouse. On day 13 when the tumors were approximately 150 mm^3, treatment started as described in Table 9.
Tumor volume and regressions were followed over time. Tumor volume was calculated by (length×width^2)/2. Note that a complete regression was defined as no measurable tumor for at least 3 consecutive measurements; while a partial regression was defined as tumor shrinkage to equal or less than 50% of original tumor volume for 3 consecutive measurements. Tumor growth delay (TGD) was defined as the median number of days for the control and treatment groups to grow to 342.14 mm^3. The average tumor volume on the first day of treatment (day 13) is 171.07 mm^3.

cytidine deaminase (CDA) = cytidine deaminase (CDA) (Homo sapiens (Human), UniProt P32320); assay: Effect of ER-876437 on the half-life of gemcitabine in the presence of CDA in Tris-HCl buffer at 37° C.; type: biochemical; parameters: half-life: dose or concentration left out as unconfirmed; settings: for half-life: cytidine deaminase (CDA) in Tris-HCl buffer, read-out: Estimated T1/2 of gemcitabine; for reduction in gemcitabine concentration: gemcitabine alone, absence of CDA, Tris-HCl buffer at 37° C., 10 hours
Method: This Example employed a Phenomenex Luna C18(2) HPLC column (100 Å 4.6×250 mm 5 μm). The solvent delivery system employed an HPLC quaternary pump, low pressure mixing. An autosampler having a variable loop, 0.1 to 100 μL range and temperature controlled thermostat was used. The UV detector can employ a dual wavelength detector, a diode array detector, a variable wavelength detector or equivalent, and can be recorded using chromatographic software (e.g., Waters Empower 2 Build 2154, Agilent ChemStation software version A.09.03 or higher for HPLC or equivalent). The analytical balance employed was capable of weighing ±0.1 mg. Degassed HPLC grade water and degassed HPLC grade acetonitrile were used as solvents for the mobile phases.
Gemcitabine Standard Control: 0.2 mM gemcitabine control was prepared by weighing […] of gemcitabine in a 10 mL volumetric flask. […] Solution was labeled as gemcitabine stock solution.

CDA = CDA (Homo sapiens (Human), UniProt P32320); settings: deamination by CDA; Chabot et al. 1983, Bouffard et al. 1993; cited from earlier work
CDA from human liver = CDA from human liver (Homo sapiens (Human), UniProt P32320); settings: Wentworth and Wolfenden 1975; cited from earlier work
CDA from human liver, sequence (P32320 whole entry): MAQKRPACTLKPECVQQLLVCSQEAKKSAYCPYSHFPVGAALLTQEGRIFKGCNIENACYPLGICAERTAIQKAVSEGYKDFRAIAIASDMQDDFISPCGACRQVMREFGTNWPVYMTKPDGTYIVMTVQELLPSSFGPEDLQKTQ

cytidine deaminase (CDA), sequence (P32320 whole entry): as above
CDA, sequence (P32320 whole entry): as above

Structure (SMILES)	regressions or tumor free survivors at day 41 ([1]; gemcitabine 1 mg/kg PO alone or ER-876437 10 mg/kg PO alone)	effect on tumor growth (FIG. 3) ([1]; gemcitabine 1 mg/kg PO and/or ER-876437 10 mg/kg PO (30 minutes prior))	TGD (tumor growth delay) ([1]; gemcitabine 1 mg/kg PO and/or ER-876437 10 mg/kg PO (30 minutes prior), delay vs vehicle to reach 342.14 mm^3) [days]	Estimated T1/2 of gemcitabine (cytidine deaminase (CDA); Gemcitabine with CDA in Tris-HCl buffer at 37° C.) [min]	half-life (cytidine deaminase (CDA); pH 7.4, Gemcitabine with CDA and ER-876437 in Tris-HCl buffer at 37° C.) [min]	half-life (cytidine deaminase (CDA); pH 7.4, Gemcitabine with CDA in Tris-HCl buffer at 37° C.) [min]	reduction in gemcitabine concentration (cytidine deaminase (CDA))	reduction in gemcitabine concentration (cytidine deaminase (CDA); listed as Gemcitabine)	concentration of gemcitabine (cytidine deaminase (CDA); presence of CDA, within 1 hour) [% control]	Km (CDA) [µM]	Km (CDA from human liver) [µM]
Nc1ccn([C@@H]2O[C@H](CO)[C@@H](O)C2(F)F)c(=O)n1 [gemcitabine, 2′-deoxy-2′,2′-difluorocytidine]	no regressions or tumor free survivors	limited efficacy	2	<35	> 780	< 35	no reduction	did not show any degradation	~0	95.7 ± 8.4	–
Nc1cnn([C@@H]2O[C@H](CO)[C@@H](O)[C@H]2O)c(=O)n1 [6-azacytidine]	–	–	–	–	–	–	–	–	–	–	4200
Nc1ncn([C@@H]2O[C@H](CO)[C@@H](O)[C@H]2O)c(=O)n1 [5-azacytidine, 4-Amino-1-(β-D-ribofuranosyl)-1,3,5-triazin-2(1H)-one]	–	–	–	–	–	–	–	–	–	216 ± 51	58
